From article PMC7200681, “The calcitonin-like system is an ancient regulatory system of biomineralization” (Scientific Reports, 2020)
Bridge positions count the residues as written; N and C are the ends.

Key:
[1] = test system: mussel mantle cells; experiment: Calcium uptake by isolated mantle cells (calcein fluorescence); type: cell-based, Mytilus galloprovincialis; conditions: CALCIIa 10 μM, 4 hours, calcein 50 mM
Experimental: Figure 7 Effect of the mussel calcitonin-like peptide on (A) calcium (ppm) concentration in the mantle edge and (B) calcium uptake by mantle cells of the Mediterranean mussel. (A) The quantity of calcium (ppm) present in the mantle edge after mussel CALCIIa peptide incubation was measured using a Microwave Plasma-Atomic Emission Spectrometer (MP-AES, Agilent) at 393.366 nm. A standard curve for calcium was performed before analysing the samples. In vitro mantle assays with CALCIIa peptide and with ouabain and control (culture medium and mantle) were repeated on at least 3 independent occasions. […] An increase in cellular fluorescence represents an increase in calcium uptake. Fluorescence of the CALCIIa peptide stimulated cells was 1.9 times higher than the control. The average mantle cell size was 3–4 μm and fluorescent images were taken using a Leica DM IL microscope coupled to a Visicam HDMI 6 digital camera and photographs were analysed using ImageJ software (v. 1.52a) to calculate the fluorescence intensity and for image overlay. […]
Mantle cells were isolated from Mediterranean mussel mantle edge explants of the posterior region and were incubated with the CALCIIa peptide. […] Photographs were analysed for image overlay and to calculate fluorescence intensity (corrected total cell fluorescence, CTCF) using ImageJ software (v. 1.52a). […]

[2] = test system: mussel CALCR-like (CALCRIa, CALCRIc, CALCRIIa, CALCRIIb and CALCRIIc); experiment: Calcium mobilization, initial single-concentration test on the mussel receptors; type: cell-based; conditions: 10 µM peptide; % of carbachol (100uM) response; single experiment with six replicates (Supplementary Figure 7B)
Experimental: Mammalian cell cultures and transfections followed the methodology described by[89],[90]. Mammalian HEK293 cells (ECACC, UK) were used and they were maintained in complete Dulbecco’s modified Eagle’s medium (DMEM, 4.5 g/l glucose, 110 mg/l sodium pyruvate and L-glutamine, SIGMA-ALDRICH, Spain) supplemented with 10% sterile foetal bovine serum (FBS), 0.1% penicillin: streptomycin antibiotic mix (10,000 U:10 mg/ml, Sigma) and 250 μg /ml sterile filtered 1:100 amphotericin B solution (SIGMA-ALDRICH) in a humid 5% CO2 incubator (HERAEUS, Portugal) at 37 °C. […] Cell recovery was monitored daily and the medium was changed every two days until no cell death was observed. […]
HEK293 cells stably expressing five mussel receptors (CALCRIa, CALCRIc, CALCRIIa, CALCRIIb and CALCRIIc) were stimulated with the two mussel peptides and the vertebrate (human and salmon) calcitonins. Receptor activation was assessed in vitro by measuring two intracellular signalling pathways: a) production of cAMP and b) mobilization of calcium (Ca^2+). The cellular response was initially assessed using 10 μM of each peptide. […]
Stable cell lines expressing the mussel receptors were transiently co-transfected with the mitochondrial targeted apo-aequorin protein cloned in pcDNA3.1. […] Peptide potency was determined as the total area under the activation curve. Data was calculated as a % of the highest response (100% activation). […]

Substance: H-CTWGGGMSDEMCSTVDIDEIQRSFQVIHDRNSP-NH2 (disulfide 1-12 (inferred)) [CALCIIa, Mediterranean mussel calcitonin-like mature peptide, 33 aa, synthesized with disulphide bond and C-terminal amidation]
- Increase in intensity of fluorescent calcium staining versus control mantle cells ([1]; ImageJ CTCF): 1.9 times
- Mean corrected total cell fluorescence (CTCF) of mantle cells ([1]; control = 1405154): 2654581
- Stimulation of mussel CALCR-like, intracellular calcium (in words) [2]: elicited a high response
